Assay results taken from US8242105B2, “Structural mimetics of proline-rich peptides and the pharmaceutical use thereof” (priority 2006, dated 2012).
No end group written: not given here.

Assays:
[1] = molecular target: T1, VASP/EVH1 domain (Homo sapiens, UniProt P50552); assay: Fluorescence titration of ligand peptides; assay type: binding
T1 construct: the EVH1 domain of a completely ^15N-labelled VASP protein
Protocol: Using the synthetic compound 85, ligand peptides with partially or completely replaced proline sequences were synthesized and investigated for their interaction with the EVH1 domain (pp=building block 85). […] The binding affinities were determined using NMR titration, the kinetic Biacore method, or by means of fluorescence titration.

[2] = molecular target: T1, VASP/EVH1 domain; assay: NMR titration (15N-1H-HSQC) of the VASP/EVH1 domain with ligand peptide; details: Binding affinity (NMR), VASP/EVH1 domain in solution; KD from change in chemical shift versus ligand peptide concentration
Protocol: The interactions between the EVH1 domain of a completely ^15N-labelled VASP protein and the ligand peptides I and II was elucidated using multidimensional NMR-spectroscopic methods. To this end, the EVH1 domain in a solution was titrated with varying amounts of ligand peptide and investigated by recording ^15N-^1H-HSQC-NMR spectra each time. In the event of positive binding interaction, increasing the ligand concentration step by step (10, 20, 50, 100, 200, 500 and 1000 μM) results in a clearly recognizable shift of some domain signals, which can be used to calculate values for the binding constant at a later point in time.
A continuous equilibrium, i.e. [EVH1]-ligand (bound) ? [EVH1]+ligand (unbound), is present in solution so that, depending on the rate of interchange of the ligands, different NMR spectra are obtained (in analogy to the signals of —OH and —NH in the one-dimensional range).
When correlating the changes in the chemical shift of the cross-peaks with the binding strength between domain and ligand peptide, it is possible to calculate values for the binding constant by plotting the change in shift Δδ versus the ligand peptide concentration.

[3] = molecular target: T1, VASP/EVH1 domain; assay: Biacore (surface plasmon resonance) binding of ligand peptides; details: Binding affinity (Biacore), initial measurements yet remaining to be verified
Text: In this method the domain protein is immobilized on the surface of a sensor chip, while a solution of ligand peptide flows across the surface. By measuring the surface plasmon resonance that causes the refractive index to change, it is possible to monitor the binding kinetics in real-time so that the association and dissociation constants can also be determined.

[4] = molecular target: T1, VASP/EVH1 domain; assay type: binding
Text: This can be seen in FIG. 2 wherein the class I EVH1 domain of the human VASP protein was investigated together with a short section from the ActA peptide (332[sequence]344).
(§1) Using a series of different test ligand peptides, it was also possible to gain an overview over the binding affinities.

[5] = molecular target: Mena/EVH1 domain (Homo sapiens, UniProt Q8N8S7); assay: biochemical
Chain of Mena/EVH1 domain (Q8N8S7 1-111 limits assumed): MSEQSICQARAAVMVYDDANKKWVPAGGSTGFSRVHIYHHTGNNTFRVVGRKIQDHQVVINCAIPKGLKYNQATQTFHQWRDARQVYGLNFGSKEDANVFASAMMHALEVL
Text: as §1

T1 sequence (P50552 2-113): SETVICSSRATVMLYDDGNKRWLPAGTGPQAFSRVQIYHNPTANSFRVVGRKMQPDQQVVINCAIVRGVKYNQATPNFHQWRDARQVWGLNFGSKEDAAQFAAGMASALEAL

For CC(C)C[C@H](NC(=O)[C@H](CCC(=O)O)NC(=O)[C@H](CC(=O)O)NC(=O)[C@H](CCC(=O)O)NC(=O)[C@@H](NC(=O)[C@@H]1CC[C@@H]2C=C[C@H]3CCN(C(=O)[C@@H]4CCCN4C(=O)[C@@H]4CCCN4C(=O)[C@H](Cc4ccccc4)NC(=O)[C@H](CCC(=O)O)NC(=O)[C@H](Cc4ccccc4)NC(=O)[C@@H](N)CO)[C@@H]3C(=O)N21)[C@@H](C)O)C(=O)O [SFEFPPppTEDEL], the Kd [1] was 26 ± 5 µM.

In the case of CC(C)C[C@H](NC(=O)[C@H](CCC(=O)O)NC(=O)[C@H](CC(=O)O)NC(=O)[C@H](CCC(=O)O)NC(=O)[C@@H](NC(=O)[C@@H]1CCCN1C(=O)[C@@H]1CC[C@@H]2C=C[C@H]3CCN(C(=O)[C@@H]4CCCN4C(=O)[C@H](Cc4ccccc4)NC(=O)[C@H](CCC(=O)O)NC(=O)[C@H](Cc4ccccc4)NC(=O)[C@@H](N)CO)[C@@H]3C(=O)N21)[C@@H](C)O)C(=O)O [SFEFPppPTEDEL], the Kd [2] is reported as 20 to 35 µM, the Kd [3] is reported as 29.3 to 33.3 µM and the Kd [1] is reported as 47 ± 14 µM.

With CC(C)C[C@H](NC(=O)[C@H](CCC(=O)O)NC(=O)[C@H](CC(=O)O)NC(=O)[C@H](CCC(=O)O)NC(=O)[C@@H](NC(=O)[C@@H]1CC[C@@H]2C=C[C@H]3CCN(C(=O)[C@@H]4CC[C@@H]5C=C[C@H]6CCN(C(=O)[C@H](Cc7ccccc7)NC(=O)[C@H](CCC(=O)O)NC(=O)[C@H](Cc7ccccc7)NC(=O)[C@@H](N)CO)[C@@H]6C(=O)N54)[C@@H]3C(=O)N21)[C@@H](C)O)C(=O)O [SFEFppppTEDEL] the Kd [1] was 45 ± 15 µM.

Work on CC(C)C[C@H](NC(=O)[C@H](CCC(=O)O)NC(=O)[C@H](CC(=O)O)NC(=O)[C@H](CCC(=O)O)NC(=O)[C@@H](NC(=O)[C@@H]1CCCN1C(=O)[C@@H]1CCCN1C(=O)[C@@H]1CC[C@@H]2C=C[C@H]3CCN(C(=O)[C@H](Cc4ccccc4)NC(=O)[C@H](CCC(=O)O)NC(=O)[C@H](Cc4ccccc4)NC(=O)[C@@H](N)CO)[C@@H]3C(=O)N21)[C@@H](C)O)C(=O)O [SFEFppPPTEDEL] yielded a Kd [1] of 82 ± 30 µM.

FPPPPT [FPPPPT] was tested, and the “binding affinity KD” value [4] was “no measurable affinity” and the Kd [5] was 417 µM.
